Source: patent US20040133038A1, “Method of purifying aromatic polycarboxylic acid” (priority 2001, published 2004)
Read-outs that look alike come from different tables or passages of the source.

Experiment: solubility in water
Assay type: physicochemical

## O=C(O)c1ccc2cc(C(=O)O)ccc2c1 [2,6-naphthalenedicarboxylic acid]
  amount dissolved in 600 g of water, calculated from the solubility: 36 g

## O=C(O)c1ccc(-c2ccc(C(=O)O)cc2)cc1 [biphenyldicarboxylic acid]
  solubility in water relative to that of terephthalic acid: 1/10

## O=C(O)c1ccc2cc(C(=O)O)ccc2c1 [naphthalenedicarboxylic acid]
Fraction of the solubility of terephthalic acid
  solubility in water relative to that of terephthalic acid: 1/10

## O=C(O)c1ccc(C(=O)O)cc1 [terephthalic acid]
  solubility in water: 6.5 g/100 g
600 g of water, 230° C.
  amount dissolved in 600 g of water, calculated from the solubility: 39 g
